Results from PMC12118597 (Science Advances, 2025).
Read-outs that look alike come from different tables or passages of the source.

Columns and labels:
[1] = biological target: T1, SARS-CoV-2 NSP3 macrodomain (Mac1) (Severe acute respiratory syndrome coronavirus 2, UniProt P0DTD1); type: binding
[2] = biological target: T1, SARS-CoV-2 NSP3 macrodomain (Mac1); experiment: biochemical; type: binding
[3] = ligand modeling, Mac1 crystal soak
[4] = compound at 200 μM, mean of three to four technical replicates, read-out: % competition at 200 μM (preliminary HTRF screen)
[5] = Single dose, concentration 200 μM
[6] = SARS CoV-2 macrodomain HTRF assay

Compound | Average % competition [2] | inhibition at 200 µM [2, 4] | further results
O[C@H]1COC[C@@H]1Nc1ncnc2[nH]ccc12 [AVI-1444, (3R,4S)-4-((7H-pyrrolo[2,3-d]pyrimidin-4-yl)amino)tetrahydrofuran-3-ol] |  |  | Number of isomers bound [1, 3]: 1
Cc1c[nH]c2ncnc(NCC3(O)CCC(O)CC3)c12 (stereo not shown) [AVI-4329] |  |  | Isomers modeled ([1]; stereoisomer(s)/conformations of the soaked ligand modeled in the Mac1 crystal structure): rr,rr
Nc1ncc(Cl)cc1S(=O)(=O)N1CCCC(O)C1 (stereo not shown) [AVI-295] |  |  | binding by crystal soaking ([1]; P43 crystal form, repeated attempts, result in words): failed to observe binding
O=C(Nc1ccsc1C(=O)O)c1ccc2c(c1)OCO2 [AVI-316] |  |  | Number of isomers bound [1, 3]: 1
CC(=O)Nc1ccc(NC(=O)CSc2nnnn2C2CCCC2)cc1 [AVI-315] | 0% |  | 
CC(C)C1CCCN1c1ncnc2[nH]ccc12 (stereo not shown) [AVI-5216] |  | 35% | inhibition at 200 µM ([2]; SARS CoV-2 macrodomain HTRF assay, single dose concentration 200 μM, read-out: Average % competition): 35%
O[C@@]1(Cn2ccnn2)CCCN(c2ncnc3[nH]ccc23)C1 [AVI-608] |  | < 10% | Average % competition ([2]; SARS CoV-2 macrodomain HTRF assay, single dose concentration 200 μM): 8%
Nc1ncnc2sc3c(c12)CCN(C(=O)[C@H]1CC=CCC1)C3 [AVI-331] | <10% |  | 
OC1CC(Cn2ccnc2)CC1Nc1ncnc2[nH]ccc12 (stereo not shown) [AVI-3725] |  | 29% | Average % competition [2, 5]: 29%
c1ccc(-n2nnnc2CSc2nnc(NC3CC3)s2)cc1 [AVI-286] |  |  | Number of isomers bound [1]: 1
Cc1ccc(O)c(C(=O)c2cnn3c(N)nnc3c2)c1 [AVI-310] | 0% |  | 
O=C(O)C(F)(F)F.OCC(Nc1ncnc2[nH]ccc12)C1CCCO1 (stereo not shown) [AVI-3645] |  | 54% | Average % competition [2, 5]: 54%
CCCC1CCCC1C(=O)N[C@H]1CCc2nc(N)sc2C1 (stereo partly shown) [AVI-298] | <10% |  | 
O=C(O)C(F)(F)F.OCC(CC1CCOCC1)Nc1ncnc2[nH]ccc12 (stereo not shown) [AVI-3676] |  | < 10% | Average % competition [2, 5]: <10%
O=C(O)C(F)(F)F.OCC(Cc1cccc(F)c1)Nc1ncnc2[nH]ccc12 (stereo not shown) [AVI-3706] |  | 77% | Average % competition [2, 5]: 77%
Cc1ccc(N2CCN(c3ncnc(-c4ccccc4)n3)CC2=O)cc1 [AVI-336] | <10% |  | 
O=C(O)C(F)(F)F.OC[C@@H](CCc1ccccc1)Nc1ncnc2[nH]ccc12 [AVI-3654] |  | 27% | Average % competition [2, 5]: 27%
CC(=O)Nc1ccc(S(=O)(=O)CCCN2C(=O)CC(C)(C(C)C)C2=O)cc1 (stereo not shown) [AVI-299] | 19% |  | 
OC1(CNc2ncnc3[nH]ccc23)CC2CCC1CC2 (stereo not shown) [AVI-4320] |  |  | Ki [2, 6]: 77 µM; Ligand efficiency (binding enery per heavy atom) [2, 6]: 0.28; IC50 ([2]; SARS CoV-2 macrodomain HTRF assay, dose-response, read-out: IC50): 83 µM
CC1CCCC1OC(=O)Cn1cnc2c1c(=O)n(C)c(=O)n2C (stereo not shown) [AVI-335] | <10% |  | 
CNc1ccc(NS(=O)(=O)c2cc3cccc(C)c3s2)cn1 [AVI-345] |  | 18% | Average % competition ([2]; single dose concentration 200 μM (TS-FrankenROCS series)): 18%
CC1(c2ccc(F)cc2)CN(C(=O)c2cnc(N)nc2C(F)(F)F)C1 [AVI-340] | 20% |  | 
CC(NC(=O)c1ccc(N)nc1Cl)C(O)c1cccc(F)c1 (stereo not shown) [AVI-349] | 15% |  | 
Nc1nnc(SCCn2c(=O)oc3ccccc32)s1 [AVI-296] |  |  | Number of isomers bound [1]: 1
